Experimental data: US12378224B2 (Dong-A Socio Holdings Co., Ltd., priority 2016, dated 2025)

Target: human MER (528-end) (Homo sapiens (Human), UniProt Q12866)
Test: HTRF Kinase Activity Biochemical Assay (KinEASE-TK)
Conditions: 10 uM ATP
Method in brief: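 Activity read-out is the HTRF ratio (665 nm over 620 nm emission, ×10,000; excitation 340 nm) after 1 h detection with 0.375 nM Eu3+-cryptate anti-TK antibody plus 0.062 uM SA-XL665. Preceding kinase step: human MER (528-end), biotinylated TK substrate, 1 h, room temperature.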

human MER (528-end), sequence (Q12866 528-999 limits assumed): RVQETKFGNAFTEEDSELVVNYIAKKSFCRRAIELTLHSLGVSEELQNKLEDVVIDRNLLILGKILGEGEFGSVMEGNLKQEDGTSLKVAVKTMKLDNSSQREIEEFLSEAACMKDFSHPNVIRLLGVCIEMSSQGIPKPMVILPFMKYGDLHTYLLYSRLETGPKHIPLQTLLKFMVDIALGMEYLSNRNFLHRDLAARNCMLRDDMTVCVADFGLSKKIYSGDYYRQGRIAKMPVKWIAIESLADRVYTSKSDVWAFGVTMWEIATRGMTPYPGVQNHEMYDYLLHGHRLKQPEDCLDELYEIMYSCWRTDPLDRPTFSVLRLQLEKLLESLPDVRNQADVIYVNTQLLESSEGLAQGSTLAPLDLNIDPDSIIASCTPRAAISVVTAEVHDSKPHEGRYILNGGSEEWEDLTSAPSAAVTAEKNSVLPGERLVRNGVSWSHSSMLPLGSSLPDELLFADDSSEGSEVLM

SMILES | IC50 [nM]
Cn1cc(-c2cnc(N)c(C(=O)N[C@@H]3CCN(C(=O)OC4CCCCCC4)C3)c2)cn1 [Example 107, cycloheptyl (R)-3-(2-amino-5-(1-methyl-1H-pyrazol-4-yl)nicotinamido)pyrrolidine-1-carboxylate] | > 1000
Cn1cc(-c2cnc(N)c(C(=O)N[C@@H]3CCN(C(=O)Oc4ccccc4CO)C3)c2)cn1 [Example 71, 2-(hydroxymethyl)phenyl (R)-3-(2-amino-5-(1-methyl-1H-pyrazol-4-yl)nicotinamido)pyrrolidine-1-carboxylate] | > 1000
Cn1cc(-c2cnc(N)c(C(=O)N[C@@H]3CCN(C(=S)Nc4cccc(Br)c4)C3)c2)cn1 [Example 52, (R)-2-amino-N-(1-((3-bromophenyl)carbamothioyl)pyrrolidin-3-yl)-5-(1-methyl-1H-pyrazol-4-yl)nicotinamide] | > 1000
Cn1cc(-c2cnc(N)c(C(=O)N[C@@H]3CCN(C(=O)c4ccc(OCc5ccccc5)cc4)C3)c2)cn1 [Example 410, (R)-2-amino-N-(1-(4-(benzyloxy)benzoyl)pyrrolidin-3-yl)-5-(1-methyl-1H-pyrazol-4-yl)nicotinamide] | 100 to 1000
Cn1cc(-c2cnc(N)c(C(=O)N[C@@H]3CCN(C(=O)c4ccc(-c5ccccc5Cl)cc4)C3)c2)cn1 [Example 359, (R)-2-amino-N-(1-(2′-chloro-[1,1′-biphenyl]-4-carbonyl)pyrrolidin-3-yl)-5-(1-methyl-1H-pyrazol-4-yl)nicotinamide] | 10 to 100
CCc1cnc(N2CC[C@@H](NC(=O)c3cc(-c4cnn(C)c4)cnc3N)C2)nc1 [Example 136, (R)-2-amino-N-(1-(5-ethylpyrimidin-2-yl)pyrrolidin-3-yl)-5-(1-methyl-1H-pyrazol-4-yl)nicotinamide] | > 1000
Cc1ccc(-c2ccc(C(=O)N3CC[C@@H](NC(=O)c4cc(-c5cnn(C)c5)cnc4N)C3)cc2O)s1 [Example 535, (R)-2-amino-N-(1-(3-hydroxy-4-(5-methylthiophen-2-yl)benzoyl)pyrrolidin-3-yl)-5-(1-methyl-1H-pyrazol-4-yl)nicotinamide] | 100 to 1000
Cn1cc(-c2cnc(N)c(C(=O)N[C@@H]3CCN(C(=O)Oc4cccc(-c5cncc6ccccc56)c4)C3)c2)cn1 [Example 289, 3-(isoquinolin-4-yl)phenyl (R)-3-(2-amino-5-(1-methyl-1H-pyrazol-4-yl)nicotinamido)pyrrolidine-1-carboxylate] | 10 to 100
Cc1cc(C(=O)N2CC[C@@H](NC(=O)c3cc(-c4cnn(C)c4)cnc3N)C2)ccc1-c1cc(F)ccc1Cl [Example 692, (R)-2-amino-N-(1-(2′-chloro-5′-fluoro-2-methyl-[1,1′-biphenyl]-4-carbonyl)pyrrolidin-3-yl)-5-(1-methyl-1H-pyrazol-4-yl)nicotinamide] | 10 to 100
Cn1cc(-c2cnc(N)c(C(=O)N[C@@H]3CCN(C(=O)c4cccc5c(-c6ccc(CN7CCC[C@@H]7CO)cc6)cccc45)C3)c2)cn1 [Example 444] | > 1000
Cn1cc(-c2cnc(N)c(C(=O)N[C@@H]3CCN(C(=O)c4ccc(-c5ccc(O)cc5)cc4)C3)c2)cn1 [Example 380, (R)-2-amino-N-(1-(4′-hydroxy-[1,1′-biphenyl]-4-carbonyl)pyrrolidin-3-yl)-5-(1-methyl-1H-pyrazol-4-yl)nicotinamide] | 100 to 1000
Cn1cc(-c2cnc(N)c(C(=O)N[C@@H]3CCN(C(=S)Nc4ccc(Br)cc4)C3)c2)cn1 [Example 46, (R)-2-amino-N-(1-((4-bromophenyl)carbamothioyl)pyrrolidin-3-yl)-5-(1-methyl-1H-pyrazol-4-yl)nicotinamide] | > 1000
CN1CCN(Cc2ccc(-c3cccc(CN4CC[C@@H](NC(=O)c5cc(-c6cnn(C)c6)cnc5N)C4)c3)cc2)CC1 [Example 246, (R)-2-amino-5-(1-methyl-1H-pyrazol-4-yl)-N-(1-((4′-((4-methylpiperazin-1-yl)methyl)-[1,1′-biphenyl]-3-yl)methyl)pyrrolidin-3-yl)nicotinamide] | > 1000
Cn1cc(-c2cnc(N)c(C(=O)N[C@@H]3CCN(C(=O)c4cccc(-c5cccc(Cn6cccn6)c5)c4)C3)c2)cn1 [Example 459, (R)—N-(1-(3′-((1H-pyrazol-1-yl)methyl)-[1,1′-biphenyl]-3-carbonyl)pyrrolidin-3-yl)-2-amino-5-(1-methyl-1H-pyrazol-4-yl)nicotinamide] | > 1000
CN1CC[C@@H](NCc2ccc(-c3cccc(OC(=O)N4CC[C@@H](NC(=O)c5cc(-c6cnn(C)c6)cnc5N)C4)c3)cc2)C1 [Example 310, 4′-((((R)-1-methylpyrrolidin-3-yl)amino)methyl)-[1,1′-biphenyl]-3-yl (R)-3-(2-amino-5-(1-methyl-1H-pyrazol-4-yl)nicotinamido)pyrrolidine-1-carboxylate] | 100 to 1000
Cn1cc(-c2cnc(N)c(C(=O)N[C@@H]3CCN(C(=O)Nc4cccc(F)c4)C3)c2)cn1 [Example 2, (R)-2-amino-N-(1-((3-fluorophenyl)carbamoyl)pyrrolidin-3-yl)-5-(1-methyl-1H-pyrazol-4-yl)nicotinamide] | > 1000

SMILES | IC50 [nM]
Cn1cc(-c2cnc(N)c(C(=O)N[C@@H]3CCN(C(=O)/C=C/c4ccc5c(c4)OCO5)C3)c2)cn1 [Example 425, (R,E)-2-amino-N-(1-(3-(benzo[d][1,3]dioxol-5-yl)acryloyl)pyrrolidin-3-yl)-5-(1-methyl-1H-pyrazol-4-yl)nicotinamide] | > 1000
Cn1cc(-c2cnc(N)c(C(=O)N[C@@H]3CCN(C(=O)c4ccc(C#CCCCO)cc4)C3)c2)cn1 [Example 554, (R)-2-amino-N-(1-(4-(5-hydroxypent-1-yn-1-yl)benzoyl)pyrrolidin-3-yl)-5-(1-methyl-1H -pyrazol-4-yl)nicotinamide] | 100 to 1000
Cn1cc(-c2cnc(N)c(C(=O)N[C@@H]3CCN(CCOCc4ccccc4)C3)c2)cn1 [Example 229, (R)-2-amino-N-(1-(2-(benzyloxy)ethyl)pyrrolidin-3-yl)-5-(1-methyl-1H-pyrazol-4-yl)nicotinamide] | > 1000
Nc1ncc(-c2cnn(C3CCNCC3)c2)cc1C(=O)N[C@@H]1CCN(Cc2ccccc2C(F)(F)F)C1 [Example 168, (R)-2-amino-5-(1-(piperidin-4-yl)-1H-pyrazol-4-yl)-N-(1-(2-(trifluoromethyl)benzyl)pyrrolidin-3-yl)nicotinamide] | > 1000
CN(C(=O)c1cc(-c2cnn(C)c2)cnc1N)[C@@H]1CCN(Cc2ccccc2)C1 [Example 623, (R)-2-amino-N-(1-benzylpyrrolidin-3-yl)-N-methyl-5-(1-methyl-1H-pyrazol-4-yl)nicotinamide] | > 1000
Nc1ncc(-c2cccnc2)cc1C(=O)N[C@@H]1CCN(C(=O)c2ccc(-c3ccccc3)cc2)C1 [Example 558, (R)—N-(1-([1,1′-biphenyl]-4-carbonyl)pyrrolidin-3-yl)-6-amino-[3,3′-bipyridine]-5-carboxamide] | 10 to 100
Cn1cc(-c2cnc(N)c(C(=O)N[C@@H]3CCN(C(=O)Oc4cccc(-c5ccc(O)cc5)c4)C3)c2)cn1 [Example 279, 4′-hydroxy-[1,1′-biphenyl]-3-yl (R)-3-(2-amino-5-(1-methyl-1H-pyrazol-4-yl)nicotinamido)pyrrolidine-1-carboxylate] | 100 to 1000
CN1CCC(NCc2ccc(-c3cccc(OC(=O)N4CC[C@@H](NC(=O)c5cc(-c6cnn(C)c6)cnc5N)C4)c3)cc2)CC1 [Example 318, 4′-(((1-methylpiperidin-4-yl)amino)methyl)-[1,1′-biphenyl]-3-yl (R)-3-(2-amino-5-(1-methyl-1H-pyrazol-4-yl)nicotinamido)pyrrolidine-1-carboxylate] | 100 to 1000
Cn1cc(-c2cnc(N)c(C(=O)N[C@@H]3CCN(C(=O)c4ccc(-c5ccc(C(N)=O)c(F)c5)cc4)C3)c2)cn1 [Example 680, (R)-2-amino-N-(1-(4′-carbamoyl-3′-fluoro-[1,1′-biphenyl]-4-carbonyl)pyrrolidin-3-yl)-5-(1-methyl-1H-pyrazol-4-yl)nicotinamide] | 100 to 1000
CN(C)Cc1ccc(Oc2ccc(OC(=O)N3CC[C@@H](NC(=O)c4cc(-c5cnn(C)c5)cnc4N)C3)cc2)cc1 [Example 115, 4-(4-((dimethylamino)methyl)phenoxy)phenyl (R)-3-(2-amino-5-(1-methyl-1H-pyrazol-4-yl)nicotinamido)pyrrolidine-1-carboxylate] | 100 to 1000
Cn1cc(-c2cnc(N)c(C(=O)N[C@@H]3CCN(C(=O)c4cccc(-c5ccccc5Cl)c4)C3)c2)cn1 [Example 478, (R)-2-amino-N-(1-(2′-chloro-[1,1′-biphenyl]-3-carbonyl)pyrrolidin-3-yl)-5-(1-methyl-1H-pyrazol-4-yl)nicotinamide] | > 1000
Cn1cc(-c2cnc(N)c(C(=O)N[C@@H]3CCN(C(=O)Oc4cccc(-c5ccc(C(=O)O)cc5)c4)C3)c2)cn1 [Example 278, (R)-3′-((3-(2-amino-5-(1-methyl-1H-pyrazol-4-yl)nicotinamido)pyrrolidine-1-carbonyl)oxy)-[1,1′-biphenyl]-4-carboxylic acid] | > 1000
COC(=O)[C@@H]1C[C@H](NC(=O)c2cc(-c3cnn(C)c3)cnc2N)CN1C(=O)c1ccc(-c2ccccc2)cc1 [Example 685, methyl (2S,4S)-1-([1,1′-biphenyl]-4-carbonyl)-4-(2-amino-5-(1-methyl-1H-pyrazol-4-yl)nicotinamido)pyrrolidine-2-carboxylate] | > 1000
Cn1cc(-c2cnc(N)c(C(=O)N[C@@H]3CCN(C(=O)c4ccc(-c5cc(Cl)cc(Cl)c5)cc4)C3)c2)cn1 [Example 363, (R)-2-amino-N-(1-(3′,5′-dichloro-[1,1′-biphenyl]-4-carbonyl)pyrrolidin-3-yl)-5-(1-methyl-1H-pyrazol-4-yl)nicotinamide] | 100 to 1000
COC(=O)[C@H]1C[C@@H](NC(=O)c2cc(-c3cnn(C)c3)cnc2N)CN1C(=O)c1cccc(-c2ccccc2)c1 [Example 684, Methyl (2R,4R)-1-([1,1′-biphenyl]-3-carbonyl)-4-(2-amino-5-(1-methyl-1H-pyrazol-4-yl)nicotinamido)pyrrolidine-2-carboxylate] | > 1000
